Laboratory results as given in patent US20030017520A1, “High-efficiency assay for protein mannosyl transferases” (priority 2001, published 2003).
Values joined by “and” are separate entries in the source; they are usually repeats but may differ in a detail not shown here. Identical values can stand only once. “Also recorded” adds a separate entry of the source.

Assays:
[1] = system: protein mannosyl transferases (PMTs), crude enzyme; test: LUV-based (UPV) PMT activity assay: transfer of [3H]-mannose from Dol-P-Man to acceptor peptide; format: biochemical, S. cervisiae; conditions: for inhibition of the PMT enzyme by divalent cation chelator: LUV assay conditions (FIG. 7B)
Procedure: The assays using the UPV method contained 20 mM Tris-HCl, pH 7.5, 10 mM MgCl2, 2.5 mM of the peptide, YNPTSV, 1.5 μl Dol-P-[^3H]-Man (approximately 0.9×10^6 cpm) “solubilized” in 100 μg POPC LUV's and 8 μg of crude enzyme (see Example 2) in a final volume of 40 μl. The assay samples were incubated for 2-30 minutes (varied per individual experiments) at 20° C. and at the end of the incubation the reaction was stopped by the addition of 10 μl 50 mM CuSO4 or 1 ml 0.1% TFA.
Assay reaction products were isolated on C18 cartridges (1 cc/100 mg Bond Elut) obtained from Varian [Homa et al. Prot. Exp. Purif., 6:141-48; 1995]. Isolation of reaction product by solvent extraction was carried out as described by Strahl-Bolsinger and Tanner [Eur. J. Biochem., 196:185-90; 1991].
As part of the characterization of the UPV PMT assay, other parameters such as the influence of detergents and ion dependence were also investigated. PMT assays (using LUVs as produced by the method in Example 3) were conducted by the methods of Example 5. Assays were performed at two concentrations of enzymes (5 and 10 μl). Buffers containing only CHAPS or CHAPS+50% glycerol were substituted for the standard Extraction Buffer used to solubilize the ezyme (see FIG. 6A). The effect of increased detergent concentration was investigated by the addition of increasing amounts of Extraction Buffer (see FIG. 6B).
Experiments were also conducted (as described immediately above) to determine whether PMTs are ion dependent. The control assay (10 mM Mg) contained LUVs made in buffer containing 10 mM MgCl2. All other assays contained LUVs prepared in buffer without MgCl2. […] Enzymol. Relat. Areas Mol. Biol., 52:23-175; 1981].

[2] = system: protein mannosyl transferases (PMTs); conditions: detergent based assay; read-out: Km previously determined; cited from earlier work
[3] = system: T1, acceptor peptide YNPTSV
T1 sequence: YNPTSV

Q: With `c1cnc2c(c1)ccc1cccnc12` [orthophenanthroline] as the compound, how does the “inhibition of the PMT enzyme by divalent cation chelator” value (“inhibition of the PMT enzyme” below) [1] read?
A: The value was “equally ineffective”.

Q: Which results are given for “YNPTSV (synthesized acceptor peptide) [standard synthetic acceptor peptide containing an acceptor site for PMTs]”?
A: Km [2]: 3300 µM; Vmax ([1]; Dol-P-Man in POPC LUVs, crude enzyme preparation): approximately 7.25 pmol min.^−1 mg protein^−1; Km ([1]; Dol-P-Man in POPC LUVs, crude enzyme preparation (yeast microsomal lysate), read-out: apparent Km for the acceptor peptide): 1500 µM and ~1000 µM

Q: With `O=C(O)CN(CCN(CC(=O)O)CC(=O)O)CC(=O)O` [EDTA] as the compound, how does the “inhibition of the PMT enzyme” value [1] read?
A: The value was “does not inhibit the enzyme; also recorded: appears not to inhibit the enzyme”.

Q: With `O=C(O)CN(CCOCCOCCN(CC(=O)O)CC(=O)O)CC(=O)O` [EGTA] as the compound, how does the “inhibition of the PMT enzyme” value [1] read?
A: The value was “equally ineffective”.

Q: For “protein mannosyl transferases (PMTs), crude detergent extract of S. cervisiae (strain BY4743) microsomal membranes”, which “Vmax (LUV-based PMT enzyme activity assay, crude enzyme)” value [3] is on record?
A: Its value is “Vmax was determined to be approximately 7.25 pmol min.^-1 mg protein^-1”.

Q: And the “apparent Km (LUV-based PMT enzyme activity assay, crude enzyme)” value [3]?
A: The value was “the apparent Km (using crude enzyme preparation) was determined to be approximately 1 mM”.

Q: What about the “apparent Km (LUV-based PMT enzyme activity assay, crude yeast microsomal lysate)” value [3] of the same compound?
A: The value was “an apparent Km of 1.5 mM, for the acceptor peptide YNPTSV”.
